Series [1] is described as follows: Microsomal stability assay (substrate depletion) in rat liver microsomes. As to conditions: male, Sprague Dawley; for half-life at 8 µM: pH 7.4, 8 µM substrate, 0.5 mg/mL protein, triplicate, read-out: In vitro t1/2 (SD); for CLint scaled at 8 µM: pH 7.4, scaled from in vitro t1/2 with fmic, 60 mg protein/g liver, 40 g liver/kg, read-out: CLint (SD), intrinsic clearance. Format: in vitro ADME. Here is the method: RLM (Sprague Dawley, male, 20 mg/mL protein concentration) were purchased from Thermo Fisher Scientific/Life Technologies (Darmstadt, Germany). Assay conditions (buffer, microsomal protein concentration, solvent) were evaluated and optimized in a preliminary study. RLM (0.5 mg/mL microsomal protein) and substrate (8 µM CBX, MCBX or CPFPX, 1 mM stock solutions in DMSO) were preincubated for 5 min at 37 °C in HEPES buffer (100 mM, pH 7.4) containing MgCl2 (3.3 mM). Reactions were initiated by addition of preheated NADPH (1.3 mM). Final incubation volume was 1 mL. Aliquots (100 µL) were withdrawn at 0, 2, 5, 10, 15 and 20 min and quenched with an equal volume of methanol/acetonitrile (50:50, v/v, cooled to −20 °C). The samples were mixed on a vortex mixer (1 min, 21 °C) and centrifuged (20,000 rcf, 10 min, 21 °C) to sediment precipitated protein. The supernatants (aliquots of 50 µL) were analyzed on a Knauer smartline HPLC-UV/VIS system (Knauer, Berlin, Germany) equipped with a manual sample injector (Rheodyne type 7125), a 500 µL sample loop and a Kromasil 100-5-C18 (4.6 × 250 mm) analytical column (AkzoNobel, Bohus, Sweden). Chromatography was performed using a mobile phase composition of ACN/H2O/HAc 48:52:0.2 (v/v/v), and with a flow rate of 1 mL/min and a detection wavelength of 275 nm. Experiments were conducted in triplicate.
Substrate depletion was calculated from the area ratios of the analyte peak, using the value at t = 0 min as 100%. Depletion data were fitted to the monoexponential decay model (Equation (1)) to derive in vitro t1/2. (1) C(t)=C0e^−ln2/t1/2t where C0 is the substrate concentration at time t = 0.
(§1) Intrinsic clearance was calculated from in vitro t1/2 using the equation [38]:(2) CLint=ln2/in vitro t1/2 (min)×fmic×ml incubation/mg microsomal protein×mg microsomal protein/g liver weight×g liver/kg body weight where scaling factors of 60 mg of microsomal protein per gram of liver and 40 g of liver tissue per kilogram of body weight were applied.

The next series in a line: Lipophilicity (log P). Type of series: physicochemical. Here is the method:
Table 1 Metabolic stability of the xanthine A1AR ligands in rat liver microsomes and predicted plasma clearance (CLp). Experiments were conducted in triplicate. fmic, unbound fraction in microsomes; CLint, intrinsic clearance; SD, standard deviation. | column: Log P

Series [2] is described as follows: Prediction of in vivo plasma clearance from microsomal stability data (well-stirred liver model) and prediction accuracy. As to conditions: rat; for CLp Predicted (SD), predicted plasma clearance: well-stirred liver model, corrected for microsomal and plasma protein binding; for Fold Error CL (ratio predicted/observed) / Fold Underprediction CL: predicted vs observed CLp. Type of series: in vitro ADME. On the procedure: as §1
In vivo clearance in plasma was predicted using the well-stirred liver model:(4) CLp=Q×fp×CLint/Q+fp×CLint where fp is the fraction unbound in plasma and Q is hepatic blood flow with a given value of 55 mL/min/kg for rat.
The individual prediction accuracy was assessed by calculation of fold error (ratio predicted/observed). AFE (Equation (5)) and RMSE (Equation (6)) were used as measures for overall bias and precision. Underprediction was also expressed as fold underprediction, which is the inverse of AFE. (5) AFE=10^1/n∑logpredicted/observed (6) RMSE=1/n∑(predicted−observed)^2 with n, number of predictions.

The nature of series [3]: In vivo pharmacokinetics in rat plasma after i.v. administration. As to conditions: for clearance / Vd / half-life: iv, single i.v. dose approx. 0.4 nmol, mean plasma curves, triexponential fit; for clearance: read-out: CLp (plasma clearance, in vivo); for Vd: read-out: Vd (volume of distribution); for half-life: read-out: t1/2,term (terminal half-life); for Parent fraction (authentic radiotracer of total plasma radioactivity): rat plasma, 180 min p.i., radio-TLC. On the procedure: Pharmacokinetic experiments on rats (n = 27) were conducted under isoflurane anesthesia (1.5–2% in oxygen) with continuous monitoring of physiological parameters. Polyethylene catheters (PE 50; filled with heparinized saline) were implanted into the femoral artery for arterial blood sampling and the lateral tail vein for radiotracer application. [^18F]CPFPX, [^18F]MCBX or [^18F]CBX (21 ± 2.5 MBq, 0.39 ± 0.20 nmol) was formulated in physiological saline (1 mL total volume) and administered over 1 min using a syringe pump (model 44, Harvard Apparatus, Holliston, MA, USA). Arterial blood samples (ca. 200 μL) were collected at regular time intervals throughout the 180-min experiment. The total blood sampling volume was kept below 10% of the circulating blood volume of the animal. Plasma was separated by centrifugation (3,000 rcf, 3 min, 21 °C), weighed and measured in a γ-counter (ISOMED 2100, MED Nuklear-Medizintechnik Dresden GmbH, Dresden, Germany) to calculate plasma radioactivity concentration. Fractions of unchanged radiotracer (parent fraction) and radiolabeled metabolites in plasma were assessed by radio-thin layer chromatography (TLC) analysis. Aliquots (45 μL) of plasma were mixed with 3 volumes of methanol/acetonitrile (50:50, v/v, 4 °C), vortexed (1 min, 21 °C) and centrifuged (20,000 rcf, 5 min, 21 C) to sediment precipitated protein. Aliquots (5 μL) of the supernatants were spotted on a TLC plate (SIL G-25, 10 × 20 cm, Macherey-Nagel, Düren, Germany). The TLC plate was developed with ethyl acetate/hexane, 75:25 (v/v), dried and subsequently imaged for 50 min with an electronic autoradiography system (InstantImager, Canberra-Packard, Rüsselsheim, Germany).
PK analysis was performed on decay and metabolite-corrected plasma radioactivity data of 8 ([^18F]CBX, [^18F]CPFPX) or 9 ([^18F]MCBX) individual animals. Data of 2 animals could not be used for PK analysis due to paravenous radiotracer injection. Since interindividual variations in plasma kinetics within the test groups were relatively small, individual plasma data were combined to mean data sets for analysis. Assuming a specific density of 1 g/mL for plasma, radioactivity concentration was calculated and plotted against time. For data visualization, plasma radioactivity concentration was normalized to body weight and amount of injected radioactivity, yielding SUV. PK parameters were derived from the radioactivity concentration-time data via nonlinear regression analysis applying a triexponential model:(7) Cp(t)=A1e^−λ1t+A2e^−λ2t+A3e^−λ3t where Cp is the plasma radioactivity concentration, t is time, A1, A2, and A3 represent the y-intercepts of the distribution/elimination phases of the plasma concentration-time curve and λ1, λ2, and λ3 represent the first-order rate constants of the phases.
Plasma clearance, volume of distribution and terminal half-life were calculated from the model parameters A and λ according to the following equations [44]:(8) CLp=D/∫0∞Cp(t)dt=D/∑i=1nAi/λi (9) Vd=Clp/λ3 (10) t1/2,term=ln 2/λ3 where D is the injected radioactivity and λ3 is the terminal rate constant.

Structures are written as SMILES. Like-named read-outs stand apart in the source and are kept apart here.

In general, logP refers to the decadic logarithm of the partition coefficient of the neutral form, usually between octanol and water. Higher therefore signals higher lipophilicity. Turning to `CCCn1c(=O)c2[nH]c(C3CCC3)nc2n(CCCF)c1=O` [CBX], in series [1], the half-life at 8 µM stood at 35.1 min and the CLint scaled at 8 µM was found to be 106 mL/min/kg. Moreover, the logP in the series “Lipophilicity (log P)” was found to be 2.19. Further, the “CLp Predicted (SD), predicted plasma clearance” value (from here on “CLp Predicted (SD)”) in series [2] was 2.72 (0.13) mL/min/kg.

Regarding `CCCn1c(=O)c2nc(C3CCCC3)[nH]c2n(CCCF)c1=O` [CPFPX, reference compound], in series [1], the half-life at 8 µM came out at 14 min and the CLint scaled at 8 µM came out at 295 mL/min/kg. The compound further came in with a logP in “Lipophilicity (log P)” of 2.93. Moreover, in series [2], the “Fold Error CL (ratio predicted/observed)” value is recorded as 0.66 and the “CLp Predicted (SD)” value was 4.70 (0.07) mL/min/kg.

As for `CCCn1c(=O)c2[nH]c(C3(C)CCC3)nc2n(CCCF)c1=O` [MCBX], in series [1], the half-life at 8 µM was found to be 19.8 min and the CLint scaled at 8 µM stood at 204 mL/min/kg. For the same compound, the logP in “Lipophilicity (log P)” turned out to be 2.82. Further, the “CLp Predicted (SD)” value in series [2] is recorded as 7.76 (0.22) mL/min/kg.

As a reminder, the clearance is a measure of how efficiently the substance is removed, as volume per time. Broadly, the Vd is a proportionality between amount in the body and measured concentration, not a real space. With `CCCn1c(=O)c2[nH]c(C3CCC3)nc2n(CCC[18F])c1=O` [[^18F]CBX, 8-cyclobutyl-3-(3-[^18F]fluoropropyl)-1-propylxanthine], in series [2], the “Fold Error CL (ratio predicted/observed)” value was 0.84 and the “Fold Underprediction CL” value is 1.2. Besides, in series [3] (rat), the clearance stood at 3.22 mL/min/kg, the Vd is 0.356 L/kg and the half-life was determined as 76.5 min. In series [3], the “Parent fraction (authentic radiotracer of total plasma radioactivity)” value (shortened to “Parent fraction”) is about 25%. The “Plasma level relative to [^18F]CPFPX” value in series [3] (rat, second and third phase of the curve (10-180 min p.i.)) is reported as “approximately twice as high”.

Consider `CCCn1c(=O)c2[nH]c(C3CCCC3)nc2n(CCC[18F])c1=O` [[^18F]CPFPX, 8-cyclopentyl-3-(3-[^18F]fluoropropyl)-1-propylxanthine, reference compound], for which, in series [2], the “Fold Error CL (ratio predicted/observed)” value is reported as 0.66 and the “Fold Underprediction CL” value is 1.5. In addition, the half-life in series [3] (0.39 nmol, rat) is about 50 min. In series [3] (rat), the clearance was 7.1 mL/min/kg, the Vd was determined as 0.523 L/kg and the half-life is 51 min. Also, the “Parent fraction” value in series [3] is listed as “approximately 7%”.

Take `CCCn1c(=O)c2[nH]c(C3(C)CCC3)nc2n(CCC[18F])c1=O` [[^18F]MCBX, 3-(3-[^18F]fluoropropyl)-8-(1-methylcyclobutyl)-1-propylxanthine]: in series [2], the “Fold Error CL (ratio predicted/observed)” value is on record as 0.85 and the “Fold Underprediction CL” value is reported as 1.2. Besides, the half-life in series [3] (0.39 nmol, rat) was about 50 min. For the same compound, in series [3] (rat), the clearance is 9.1 mL/min/kg, the Vd was 0.715 L/kg and the half-life is 54.5 min. For the same compound, the “Parent fraction” value in series [3] is about 13%.

The record behind these values is paper PMC6631687, “Relevance of In Vitro Metabolism Models to PET Radiotracer Development: Prediction of In Vivo Clearance in Rats from Microsomal Stability Data” (Pharmaceuticals, 2019).
